How the values were obtained:
Format in all cases: in vivo
Amaranthus retroflexus [1] = test: Example B1 herbicidal action, post-emergence, seed trays in climatic chamber, damage score 0-10; details: 1000 g/ha, evaluated after 9 days, 10=total damage to plant, 0=no damage to plant
Protocol: (§1) Seeds of a variety of test species were sown in sterilized standard soil in seed trays each having 96 cells. After cultivation for 8 to 9 days cultivation (post-emergence) under controlled conditions in a climatic chamber (cultivation at 23/17° C., day/night; 13 hours light; 50-60% humidity), the plants were treated with an aqueous spray solution of 1000 mg/l of the active ingredient dissolved in 10% DMSO (dimethyl sulfoxide, CAS RN 67-68-5) as a solvent, equivalent to 1000 g/ha. The plants were grown in the climatic chamber after application at (24/19° C., day/night; 13 hours light; 50-60% humidity) and watered twice daily. After 9 days until the test was evaluated (10=total damage to plant, 0=no damage to plant)

Stellaria media = test: as above; details: 1000 g/ha, evaluated after 9 days, 10=total damage to plant, 0=no damage to plant
Protocol: as §1

Solanum nigrum [2] = test: as above; details: 1000 g/ha, evaluated after 9 days, 10=total damage to plant, 0=no damage to plant
Protocol: as §1

Nasturtium officinale = test: as above; details: 1000 g/ha, evaluated after 9 days, 10=total damage to plant, 0=no damage to plant
Protocol: as §1

Amaranthus retroflexus [3] = test: Example B2 herbicidal action, post-emergence, pots in glasshouse, damage score 0-10; details: application post-emergence, rate 1000 g/ha, evaluated after 13 days
Method in brief: (§2)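 Seedlings grown 8 days in a controlled glasshouse received a foliar spray of the compound formulated in 50:50 acetone/water plus 0.5% Tween 20; plant damage was assessed 13 days afterward.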

Ipomea hederaceae = test: as above; details: application post-emergence, rate 1000 g/ha, evaluated after 13 days
Method in brief: as §2

Echinochloa crus-galli = test: as above; details: application post-emergence, rate 1000 g/ha, evaluated after 13 days
Method in brief: as §2

Solanum nigrum [4] = test: as above; details: application post-emergence, rate 1000 g/ha, evaluated after 13 days
Method in brief: as §2

Setaria faberi = test: as above; details: application post-emergence, rate 1000 g/ha, evaluated after 13 days
Method in brief: as §2

SMILES | damage to plant, AMARE (Amaranthus retroflexus [1]) | damage to plant, STEME (Stellaria media) | damage to plant, SOLNI (Solanum nigrum [2]) | damage to plant, NAAOF (Nasturtium officinale) | AMARE damage score (10=total damage to plant; 0=no damage to plant) (Amaranthus retroflexus [3]) | IPOHE damage score (10=total damage to plant; 0=no damage to plant) (Ipomea hederaceae) | ECHCG damage score (10=total damage to plant; 0=no damage to plant) (Echinochloa crus-galli) | SOLNI damage score (10=total damage to plant; 0=no damage to plant) (Solanum nigrum [4]) | SETFA damage score (10=total damage to plant; 0=no damage to plant) (Setaria faberi)
CC(C)(C)C(=O)OC1=C(c2ccc(Cl)cc2Cl)S(=O)(=O)Nc2nccnc21 [Compound B1] | 0 | 0 | 2 | 0 | – | – | – | – | –
CC(C)C(=O)OC1=C(c2c(Cl)ccc(Cl)c2C(F)(F)F)S(=O)(=O)N(CC(F)F)c2nccnc21 [Compound C53] | – | – | – | – | 8 | 4 | 8 | 5 | 5
CCOC(=O)OC1=C(c2cc(C)ccc2C(F)(F)F)S(=O)(=O)N(CC(F)F)c2nccnc21 [Compound C147, carbonic acid 1-(2,2-difluoro-ethyl)-3-(5-methyl-2-trifluoromethyl-phenyl)-2,2-dioxo-1,2-dihydro-2-λ-6-thia-1,5,8-triaza-naphthalen-4-yl ester ethyl ester] | – | – | – | – | 1 | 9 | 2 | 9 | 3
CCN1c2nccnc2C(O)=C(c2ccc(Cl)c(Cl)c2)S1(=O)=O [Compound D8] | – | – | – | – | 9 | 0 | 0 | 2 | 0
CCN1c2nccnc2C(OC(=O)C(C)(C)C)=C(c2c(Cl)cccc2C(F)(F)F)S1(=O)=O [Compound C17] | – | – | – | – | 8 | 7 | 5 | 9 | 4
CCSC(=O)OC1=C(c2c(C(F)(F)F)ccc(Cl)c2Cl)S(=O)(=O)N(CC(F)F)c2nccnc21 [Compound C135] | – | – | – | – | 8 | 8 | 7 | 10 | 10
CCN1c2nccnc2C(OC(=O)C(C)C)=C(c2cc(C(F)(F)F)ccc2Br)S1(=O)=O [Compound C70] | – | – | – | – | 7 | 10 | 7 | 8 | 1
CCN1c2nccnc2C(O)=C(c2cc(F)c(Cl)cc2Cl)S1(=O)=O [Compound D23] | – | – | – | – | 8 | 9 | 2 | 8 | 2
CC#CCN1c2nccnc2C(O)=C(c2c(Cl)ccc(Cl)c2C(F)(F)F)S1(=O)=O [Compound D48] | – | – | – | – | 3 | 7 | 0 | 8 | 0
CCN1c2nccnc2C(OC(=O)C(C)(C)C)=C(c2cc(C(F)(F)F)ccc2Cl)S1(=O)=O [Compound C33] | – | – | – | – | 1 | 5 | 0 | 6 | 0
CCN1c2nccnc2C(O)=C(c2cccc(C(F)(F)F)c2Cl)S1(=O)=O [Compound D38] | – | – | – | – | 9 | 5 | 1 | 8 | 0
CCSC(=O)OC1=C(c2ccccc2I)S(=O)(=O)N(CC(F)F)c2nccnc21 [Compound C82] | – | – | – | – | 10 | 10 | 9 | 10 | 8
CCN1c2nccnc2C(OC(=O)C(C)C)=C(c2cc(I)ccc2Cl)S1(=O)=O [Compound C51] | – | – | – | – | 5 | 6 | 1 | 7 | 0
CC(C)C(=O)OC1=C(c2cccc(Cl)c2Cl)S(=O)(=O)N(CC(F)F)c2nccnc21 [Compound C102] | – | – | – | – | 1 | 6 | 0 | 7 | 0
CCN1c2nccnc2C(OC(=O)C(C)(C)C)=C(c2ccc(Cl)cc2C(F)(F)F)S1(=O)=O [Compound C15] | – | – | – | – | 9 | 8 | 7 | 9 | 2
CCSC(=O)OC1=C(c2c(Cl)ccc(Cl)c2Cl)S(=O)(=O)N(CC)c2nccnc21 [Compound C71] | – | – | – | – | 8 | 10 | 6 | 9 | 1
CCN1c2nccnc2C(OC(=O)C(C)C)=C(c2cc(Cl)ccc2C(F)(F)F)S1(=O)=O [Compound C110] | – | – | – | – | 9 | 8 | 5 | 8 | 4
CC(C)C(=O)OC1=C(c2ccccc2C#N)S(=O)(=O)N(CC(F)F)c2nccnc21 [Compound C128] | – | – | – | – | 7 | 8 | 0 | 9 | 0
Cc1ccc(F)c(C2=C(O)c3nccnc3N(CC(F)F)S2(=O)=O)c1Cl [Compound D12] | – | – | – | – | 6 | 5 | 0 | 9 | 2
CCSC(=O)OC1=C(c2c(Cl)ccc(OC)c2F)S(=O)(=O)N(CC(F)F)c2nccnc21 [Compound C145] | – | – | – | – | 0 | 8 | 5 | 8 | 2
CCN1c2nccnc2C(O)=C(c2ccccc2[N+](=O)[O-])S1(=O)=O [Compound D34] | – | – | – | – | 0 | 2 | 0 | 1 | 1
C#CCN1c2nccnc2C(OC(=O)C(C)(C)C)=C(c2c(Cl)ccc(Cl)c2C(F)(F)F)S1(=O)=O [Compound C86] | – | – | – | – | 5 | 4 | 5 | 6 | 2
CC(C)(C)C(=O)OC1=C(c2ccccc2C(F)(F)F)S(=O)(=O)N(CC(F)F)c2nccnc21 [Compound C62] | – | – | – | – | 7 | 8 | 4 | 6 | 6
C=CCN1c2nccnc2C(OC(=O)SCC)=C(c2cc(Cl)ccc2C(F)(F)F)S1(=O)=O [Compound C119] | – | – | – | – | 3 | 3 | 5 | 6 | 3
